Results as given in patent US20210290721A1, “ORAL FORMULATIONS FOR PROMOTING CELLULAR PURIFICATION” (NSE Products, Inc., priority 2011, published 2021).

Columns and labels:
GCLC = test: RT-qPCR expression of GCLC in gastrocnemius muscle of old mice; format: in vivo, B6C3F1 mice; conditions: for effect on age-related decreases in the expression of GCLC: YC vs OC and OC vs old treated mice; for GCLC expression: diet supplemented from 14 to 30 months of age, old treated vs old controls (OC)
Excerpt: (§1) B6C3F1 mice were obtained and housed as in Example 1. For the young control (YC) group, starting at 8 weeks of age and continuing until 22 weeks of age, mice were maintained on the AIN93^M diet; For the old animal groups, starting at 14 months of age and continuing until 30 months of age, mice were either 1) maintained on the AIN93^M diet (old controls, OC); 2) fed a calorie or energy restricted (CR) diet providing 63 kcal/week of a modified AIN93^M formulation; or 3) were assigned to an AIN93^M diet supplemented with one of several plant extracts, vitamins or phytochemicals; the amount of each ingredient per kilogram diet varied depending on the experimental ingredient studied. At the end of the feeding period, tissues were collected from the gastrocnemius muscles of the mice, flash-frozen in liquid nitrogen and stored at −80° C. for later analysis.
To determine if CR or an ingredient opposed age-related declines in the Nrf2 pathway to regulate expression of xenobiotic metabolism genes and oxidative stress genes, we performed quantitative real-time PCR (RT-qPCR) analysis on RNA isolated from gastrocnemius muscle from all groups of mice. The magnitude of change was determined for each gene (YC vs. OC and OC vs Old treated mice). Two-tailed t-tests (assuming equal variance) were used to determine if the change in expression for individual genes was statistically significant. The magnitude of the change in expression is reported as “fold change” values which are log 2-adjusted to fit normality assumptions for statistical analyses.
A panel of 5 genes representative of the Nrf2 pathway was selected for screening the ingredients: GCLM, GCLC, GSR, GSTA1, and NQO1. Ingredients screened in the muscle included: alpha lipoic acid, CoQ10, Pomegranate, Resveratrol and others.

iNOS/Nos2 = test: RT-qPCR expression of iNOS/Nos2 in lung of young mice; format: in vivo, C57BL/6J mice; conditions: diet supplemented from 8 to 22 weeks of age, treated vs YC
Excerpt: C57BL/6J mice were obtained at 6 weeks of age and individually housed in shoebox cages and provided with 24 grams (˜84 kcal) of AIN-93^M diet per week (7 grams on Monday and Wednesday and 10 grams on Friday). Starting at 8 weeks of age and continuing until 22 weeks of age, mice were either 1) maintained on the AIN93^M diet (Young Controls, YC); 2) fed a Calorie Restricted (CR) diet providing 63 kcal/week of a modified AIN93^M formulation; or 3) were assigned to an AIN93^M diet supplemented with one of several plant extracts, vitamins or phytochemicals; the amount of each ingredient per kilogram diet varied depending on the experimental ingredient studied. At 22 weeks of age, tissues were collected from mice, flash-frozen in liquid nitrogen and stored at −80° C. for later analysis.
To determine if CR or an ingredient positively influenced the Nrf2 pathway to regulate expression of xenobiotic metabolism genes and oxidative stress genes and/or positively influenced genes responsible for regulation of inflammation, we performed quantitative real-time PCR (RT-qPCR) analysis on RNA isolated from entire livers and lungs from all groups of mice. Briefly, the magnitude of change was determined for each gene, comparing the young control (YC) group vs. the caloric or energy restriction (CR) group and YC vs. Treated mice. […]

GSR = test: RT-qPCR expression of GSR in gastrocnemius muscle of old mice; format: in vivo, B6C3F1 mice
Excerpt: as §1, with “analysis. To determine if CR or an ingredient opposed age-related declines in the Nrf2 pathway to regulate expression of xenobiotic metabolism genes and oxidative stress genes, we performed quantitative real-time PCR (RT-qPCR) analysis on RNA isolated from gastrocnemius muscle from all groups of mice. The magnitude of change was determined for each gene (YC vs. OC and OC vs Old treated mice). Two-tailed t-tests (assuming equal variance) were used to determine if the change in expression for individual genes was statistically significant. […]” for “analysis.”

[1] = tested on: Nrf2/ARE/detoxification related genes; test: RT-qPCR gene expression screening in liver of young mice fed ingredient-supplemented diet; format: in vivo, C57BL/6J mice; conditions: diet supplemented from 8 to 22 weeks of age, treated vs young control (YC)

| Structure (SMILES) | effect on age-related decreases in the expression of GCLC (GCLC) | GCLC expression (GCLC) | change in iNOS/Nos2 expression in the lung (iNOS/Nos2) | effect on age-related decreases in the expression of GSR (GSR; YC vs OC and OC vs old treated mice) | GSR expression (GSR; diet supplemented from 14 to 30 months of age, old treated vs OC) | gene expression changes in the liver (impact of ingredient) [1] |
| --- | --- | --- | --- | --- | --- | --- |
| COC1=C(OC)C(=O)C(C/C=C(\C)CC/C=C(\C)CC/C=C(\C)CC/C=C(\C)CC/C=C(\C)CC/C=C(\C)CC/C=C(\C)CC/C=C(\C)CC/C=C(\C)CCC=C(C)C)=C(C)C1=O [CoQ10, coenzyme Q10] | opposed age related decreases | upregulated | Modest downregulation | – | – | – |
| O=C(O)CCCCC1CCSS1 (stereo not drawn) [alpha lipoic acid] | opposed age-related decreases | upregulated | – | opposed age-related decreases | upregulated | greatest positive impact |
| O=c1c(O)c(-c2ccc(O)c(O)c2)oc2cc(O)cc(O)c12 [quercetin, Quercetin] | – | – | Modest downregulation | – | – | – |
